According to patent US6815398B1, “Substituted phenyluracils and their use as herbicides” (Bayer Aktiengesellschaft, priority 1999, dated 2004):

melting point	SMILES
84 °C	COc1ccc(Oc2cc(-n3c(=O)cc(C(F)(F)F)[nH]c3=O)c(F)cc2C#N)cc1 [Example 1, 4-(3,6-dihydro-2,6-dioxo-4-trifluoromethyl-1(2H)-pyrimidin-1-yl)-5-fluoro-2-(4-methoxy-phenoxy)-benzonitrile]
62 °C	COc1ccc(Oc2cc(-n3c(=O)cc(C(F)(F)F)n(C)c3=O)c(F)cc2C#N)cc1 [Example 2, 4-(3,6-dihydro-2,6-dioxo-3-methyl-4-trifluoro-methyl-1(2H)-pyrimidin-1-yl)-5-fluoro-2-(4-methoxy-phenoxy)-benzonitrile]
